# Results taken from patent US10335382B2, “Use of hydrogen sulfide synthesis inhibitors for cancer therapy” (THE BOARD OF REGENTS OF THE UNIVERSITY OF TEXAS SYSTEM, priority 2013, dated 2019).
# Experiments:
# [1] = system: NCM356 cells; experiment: NCM356 non-malignant colonic epithelial cell proliferation (xCELLigence); type: cell-based, human; details: AOAA 1 mM
# Protocol: Cellular proliferation assays are conducted in HCT116 CRC cells in vitro, using the Roche XCelligence method. Concentration-response curves with the various AOAA analogs are prepared (concentration range: 1, 3, 10, 100, 300 and 600 μM). AOAA is used as the reference control, which, according to preliminary data, has an IC50 of approximately 300 μM. Control proliferation studies in the non-carcinogenic colonic epithelial cell line NCM356 are used to confirm cancer-cell selectivity. Since the NCM356 cells contain low levels of CBS, based on previous studies it is expect that AOAA (and its prodrugs) will only exert modest antiproliferative effects in these cells. Proliferation-inhibitory effects of the AOAA prodrugs in NCM356 cells indicate CBS-independent pharmacological actions. […]
# Cellular migration and invasion assays were performed as described (Chao et al. (1996) Cancer Res. 56:4811-19). […] Migrated and invaded cells were then fixed in Carson's fixative, stained in 0.33% toluidine blue and quantified by visual counting. For the HCT116-EAhy926 co-culture experiment, the cancer cell line was grown to confluence in the bottom wells of the transwell chambers and then endothelial cell migration was assessed (Coletta et al. (2012) Proc Natl Acad Sci USA. 109:9161-66). […]
# [2] = system: patient-derived colon cancer xenografts; experiment: Patient-derived tumor xenograft (PDTX) growth; type: in vivo, nu/nu mice; details: AOAA 9 mg/kg/day s.c.
# Protocol: Nu/nu Balb/C female mice (8-10 weeks) were injected subcutaneously in the right and left dorsum (10^6 cells/side with HCT-116 cells). One week later, the mice were randomized and subcutaneous injections of phosphate buffered saline (PBS) or AOAA (9 mg/kg/day) were performed 6 days/week. Tumor diameters were measured transcutaneously using calipers and tumor volumes were calculated using the formula V=(π/6)hd^2. T-test comparisons of the tumor volumes and final weights at harvest were performed. Xenotrials with patient-derived xenografts (PTX) were performed on nu/nu mice implanted subcutaneously with a piece of Passage 2 tumor measuring 2-5 mm^3 each. When a small palpable tumor was evident at 7-10 days, the mice with tumor take were randomized and subjected to subcutaneous injection of vehicle or AOAA (9 mg/kg/day) 6 days/week. Specimens were fixed with 10% formalin and embedded in paraffin. 5 μm sections were stained with hematoxylin and eosin. Each in vivo experiment was repeated at least twice.
smiles,measurement,setting,value
"NOCC(=O)O [AOAA, aminooxyacetic acid]",NCM356 growth,[1],did not affect
same,"PDTX growth, second patient with stage II disease and mutant Kras allele",[2],growth inhibitory effects
same,"rate of PDTX growth, patient with stage III disease and Kras mutation",[2],reduced rate
